“Also recorded” adds a separate entry of the source.
Columns and labels:
TS603 GBM tumor spheres = assay: Electrochemiluminescent detection of pAkt and pS6RP in GBM tumor spheres; type: cell-based, human; settings: at the median intratumoral Cmax concentration (0.17 μM), four hours treatment
glioblastoma tumor cells = assay: Clinical trial: Ki-67 IHC tumor cell proliferation; type: in vivo, human
Procedure: The design of the trial allowed comparison of the initial glioma (Surgery 1) in these patients to the recurrent glioma which was treated with drug before surgical resection (Surgery 2). Immunohistochemical staining (IHC) was performed on the samples and pathway inhibition was measured via pS6 Ser235/6, pS6K1 Thr389, p4E-BP1 Thr37/46, and pPRAS40 Thr246 (FIG. 1E, upper panel). Cellular proliferation was measured via Ki-67 IHC. These IHC measurements were compared to one another and reported as a percentage decrease or increase of Surgery2/Surgery 1. Samples which had reduction of all four phospho-protein measurements in Surgery 2 also had the greatest relative decreases in cellular proliferation (FIG. 1E, lower panel). Samples which had no inhibition of any pharmacodynamic biomarker or inhibition of only one pharmacodynamic biomarker were most likely to see a relative increase in proliferation.
To compare the relative change in cellular proliferation in the three drug arms and a drug naïve population, a control population was formed of patients who had not been treated with any PI3K inhibitor and surgical samples available from two surgical resections and compared their relative proliferation via Ki-67 IHC (FIG. 12A). This control group was compared with the three arms of the trial. […] There was no statistically significant change in proliferation between the control group and the other arms of the trial.
To determine the Ki-67 labeling index, slides were analyzed as with the phospho-proteins, and the number of positively stained and total number of cells was determined for each image. The percentage of Ki-67 positive cells was calculated for each image, then the three images were averaged.

[1] = system: TS543 GBM cells (PDGFRA amplified); assay: Cell proliferation and viability (Vi-Cell, trypan blue), TS543; type: cell-based, human; settings: TS543, five day treatment
Procedure: For growth assays performed on non-adherent cell lines (primary human neurosphere lines and S5472 cells) cells were single cell disassociated with Accumax, then counted using the Beckman Coulter Vi-Cell XR Cell Viability Analyzer. Cells were plated in a 6 cm dish in triplicate for each vehicle or drug sample. After five days in culture, each plate was individually spun down, Accumax disassociated, and counted with the Vi-Cell. The Vi-Cell uses trypan blue-exclusion as a measure for viable cells, trypan blue positive cells were used to calculate the percentage of cell death in each sample. The average and standard error of the mean was graphed using GraphPad Prism 6.
(§1) SAR408 and SAR409 were provided by Sanofi. […] Antibodies for western blots were from Cell Signaling Technology with the following exceptions: actin (Sigma), total PDGFRA (Santa Cruz), and V5 epitope (Invitrogen). Western Blots were performed after four hours of drug treatment unless indicated otherwise. Electroluminescence was used to quantify phosphorylation of Akt and S6 ribosomal protein (FIG. 1B) (Meso Scale Discovery cat # K15100D-1 and cat # K150DGD-1). Cell Proliferation and Viability Assays were performed using a Beckman Coulter Vi-Cell XR Cell Viability Analyzer after five days of drug treatment unless indicated otherwise.

[2] = system: S5472 GBM cells (PDGFB driven); assay: Cell proliferation and viability (Vi-Cell, trypan blue), S5472; type: cell-based, mouse
[3] = system: EGFR mutant GBM cells (SF-268, KNS-81-FD); assay: Cell viability, EGFR mutant GBM cells; type: cell-based, human; settings: SF-268 (EGFR A289V), KNS-81-FD (EGFR G598V), five day treatment
Procedure: Growth assays performed on adherent cell lines were trypsanized, counted, and plated into 6 cm dishes. The next day media was removed, and replaced with reduced serum media (5% FBS) with drug or vehicle in triplicate for each concentration. After five days in culture, cells were analyzed in the same manner as non-adherent lines.
as §1

[4] = system: HER2-amplified BT474 breast cancer cells; assay: Cell viability, BT474; type: cell-based, human; settings: BT474, five day treatment
TS543 GBM cells = assay: Western blot of pathway signaling, TS543; type: cell-based, human; settings: TS543, four hour treatment
Procedure: Cell lysates for western blots were harvested in cell lysis buffer (Cell Signaling 9803) supplemented with a protease inhibitor cocktail (Calbiochem cocktail II 524625) and phosphatase inhibitor cocktail (Calbiochem cocktail III 524627). Lysates were sonicated, centrifuged, then quantified (Bio-Rad DC Protein Assay 500-0113, 500-0114, and 500-0115). Samples were normalized to one another, then a reducing loading buffer was added. Samples were run on SDS-PAGE gels and semi-dry transferred to nitrocellulose membranes.
as §1

TS543 cells = assay: TS543 subcutaneous tumor model in SCID mice; type: in vivo, mouse; settings: 60 mg/kg/day, p=0.0139 vs vehicle
Procedure: To confirm the in vitro observations described above in vivo, one million TS543 cells were injected into the flank of a severe combined immune deficiency (SCID) mouse. Once tumors had formed, the mice were randomized into vehicle or 60 mg/kg/day SAR245409 treatment arms. Tumors were measured every three days. […] This reduction was statistically significant (unpaired t test with Welch's correction, p=0.0139).
(§2) For the S5472 and TS543 subcutaneous model, 10e6 cells were suspended in a 100 uL mixture of 50% growth media 50% Matrigel (BD 356237). SCID mice were injected subcutaneously in the flank, and once tumors had reached a measurable size, mice were randomized into treatment groups.

S5472 cells = assay: S5472 subcutaneous tumor model in SCID mice, tumor growth; type: in vivo, mouse
Procedure: The in vivo effects of SAR245409 treatment were examined on the S5472 PDGF-β driven line. One million S5472 cells were injected subcutaneously into SCID mice flanks. After measurable tumor formation, mice were randomized into vehicle, 60 mg/kg/day, or 120 mg/kg/every other day treatment groups, ten mice per group. […] Tumors were removed from one hour after the last dose of treatment for analysis. Sections were IHC stained for biomarkers of pathway inhibition pAkt Ser473 and pS6 Ser235/6. […] Portions of the tumor were lysed and pAkt Ser473 and pS6 Ser240/4 were measured using an electrochemiluminescent assay on the Meso Scale system (FIG. 19B).
as §2

PI3Kδ = PI3Kδ (Homo sapiens, UniProt O00329); settings: cited from earlier work
Sequence of PI3Kδ (O00329 whole entry): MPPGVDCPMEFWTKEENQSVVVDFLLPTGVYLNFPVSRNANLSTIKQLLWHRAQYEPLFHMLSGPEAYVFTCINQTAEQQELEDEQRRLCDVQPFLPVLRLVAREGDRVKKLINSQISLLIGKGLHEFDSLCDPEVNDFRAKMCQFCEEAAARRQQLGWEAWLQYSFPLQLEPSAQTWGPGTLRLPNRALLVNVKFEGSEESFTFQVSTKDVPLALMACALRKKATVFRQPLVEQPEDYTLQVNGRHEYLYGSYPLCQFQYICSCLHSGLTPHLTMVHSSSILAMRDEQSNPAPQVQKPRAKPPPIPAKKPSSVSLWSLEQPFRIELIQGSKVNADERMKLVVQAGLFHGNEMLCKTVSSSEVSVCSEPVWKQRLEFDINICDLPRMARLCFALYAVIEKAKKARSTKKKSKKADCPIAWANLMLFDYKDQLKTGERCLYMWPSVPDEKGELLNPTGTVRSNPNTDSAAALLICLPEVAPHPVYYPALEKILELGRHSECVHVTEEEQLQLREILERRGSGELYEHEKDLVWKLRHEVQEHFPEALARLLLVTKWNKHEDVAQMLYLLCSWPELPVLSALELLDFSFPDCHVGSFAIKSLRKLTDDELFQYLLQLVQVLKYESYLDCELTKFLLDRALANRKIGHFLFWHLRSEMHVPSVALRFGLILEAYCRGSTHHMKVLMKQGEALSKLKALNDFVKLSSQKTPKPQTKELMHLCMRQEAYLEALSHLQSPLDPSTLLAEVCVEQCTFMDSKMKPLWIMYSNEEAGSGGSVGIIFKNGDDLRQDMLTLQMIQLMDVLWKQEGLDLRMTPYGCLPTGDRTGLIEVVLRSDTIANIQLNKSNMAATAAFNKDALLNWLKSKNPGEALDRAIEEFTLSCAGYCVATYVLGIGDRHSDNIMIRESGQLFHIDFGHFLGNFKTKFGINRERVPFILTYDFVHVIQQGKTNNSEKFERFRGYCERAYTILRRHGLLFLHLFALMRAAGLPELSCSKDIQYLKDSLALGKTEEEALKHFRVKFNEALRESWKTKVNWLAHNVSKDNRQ
Sequence of PI3Kδ (P27986 whole entry partner): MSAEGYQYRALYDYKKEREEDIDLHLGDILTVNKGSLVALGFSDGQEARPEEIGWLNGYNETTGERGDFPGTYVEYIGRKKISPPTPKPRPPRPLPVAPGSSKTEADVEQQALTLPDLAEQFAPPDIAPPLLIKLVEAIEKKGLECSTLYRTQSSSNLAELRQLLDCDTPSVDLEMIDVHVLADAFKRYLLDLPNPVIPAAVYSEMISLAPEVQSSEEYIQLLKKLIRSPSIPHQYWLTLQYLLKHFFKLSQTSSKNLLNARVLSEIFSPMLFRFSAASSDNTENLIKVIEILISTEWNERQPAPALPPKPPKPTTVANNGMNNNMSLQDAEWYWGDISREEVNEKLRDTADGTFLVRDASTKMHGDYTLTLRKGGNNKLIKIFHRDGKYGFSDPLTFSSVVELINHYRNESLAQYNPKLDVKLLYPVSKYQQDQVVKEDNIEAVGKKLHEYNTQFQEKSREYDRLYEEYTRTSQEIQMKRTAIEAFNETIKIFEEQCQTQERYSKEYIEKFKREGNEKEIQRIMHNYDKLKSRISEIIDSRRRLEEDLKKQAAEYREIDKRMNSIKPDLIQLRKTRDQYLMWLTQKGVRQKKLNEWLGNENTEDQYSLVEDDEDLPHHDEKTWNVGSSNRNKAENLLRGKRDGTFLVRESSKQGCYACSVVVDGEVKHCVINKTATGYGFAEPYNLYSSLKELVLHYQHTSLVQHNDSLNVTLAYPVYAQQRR

mTOR = mTOR (Homo sapiens, UniProt P42345); settings: cited from earlier work

## CCn1c(=O)c(-c2cc[nH]n2)cc2c(C)nc(N)nc21 [SAR409, voxtalisib]
TS603 GBM tumor spheres
  reduction of phosphorylation of Akt and S6 Ribosomal Protein: about 50%
Glioblastoma tumor cells; 50 mg/BID SAR245409 arm
  change in proliferation (Ki-67) compared to untreated control population: not significantly different
Glioblastoma tumor cells; 90 mg/QD SAR245409 arm, p=0.009
  change in proliferation (Ki-67) compared to untreated control population: statically significant decrease; also recorded: statistically significantly reduced
Glioblastoma tumor cells; patients treated 10-28 days before surgery
  cellular proliferation in tumor, Surgery 2 vs Surgery 1: Reduced Cellular Proliferation
[1]
  cell death (% Trypan blue positive cells): induced cell death
  proliferation / growth inhibition: more sensitive to growth inhibition
[1]; listed as SAR245409
  cell death (% Trypan blue positive cells): induction of cell death
  proliferation / growth inhibition: potent growth inhibition
[2]; 1 μM SAR245409 together with doxycycline, five days
  ligand-independent growth and survival of D842V-S5472 cells: ablates ligand-independent growth and survival
[2]; S5472, five day treatment
  cell death (% Trypan blue positive cells): induced cell death
  proliferation / growth inhibition: potent growth inhibition
[2]; S5472, five day treatment, listed as SAR245409
  cell death (% Trypan blue positive cells): induction of cell death
[3]
  cell death (% Trypan blue positive cells): failed to induce cell death
[3]; listed as SAR245409
  cell death (% Trypan blue positive cells): robust induction of cell death was only detected in the BT474 line
[4]
  cell death (% Trypan blue positive cells): induced cell death
[4]; listed as SAR245409
  cell death (% Trypan blue positive cells): robust induction of cell death
TS543 GBM cells
  PI3K/mTOR pathway inhibition (Western blot): inhibited the PI3K/mTOR pathway almost completely
TS543 cells
  tumor growth (tumor volume): marked reduction in tumor growth
S5472 cells; 60 mg/kg/day
  tumor growth (tumor volume): markedly reduced tumor growth
S5472 cells; 120 mg/kg/every other day
  tumor growth (tumor volume): markedly reduced tumor growth
PI3Kδ
  IC50: 91 nM
mTOR
  IC50: 190 nM

Source: US10632121B2, “Platelet-derived growth factor receptor mutations and compositions and methods relating thereto” (MEMORIAL SLOAN KETTERING CANCER CENTER, priority 2014, dated 2020)
